According to ChEMBL document CHEMBL4028823, “Pharmacological property optimization for allosteric ligands: A medicinal chemistry perspective” (Bioorg Med Chem Lett, 2017):
Each block holds one compound with its values, some of them ahead of it.

How the values were obtained:
[1] = target: T1, Muscarinic acetylcholine receptor M2 (Homo sapiens, UniProt P08172); assay: Displacement of [3H]NMS from wild-type human mAChR2 expressed in Flp-in-CHO cell membranes in presence of mAChR2 agonist xanomeline after 90 mins by scintillation counting analysis
T1 sequence (P08172 whole entry): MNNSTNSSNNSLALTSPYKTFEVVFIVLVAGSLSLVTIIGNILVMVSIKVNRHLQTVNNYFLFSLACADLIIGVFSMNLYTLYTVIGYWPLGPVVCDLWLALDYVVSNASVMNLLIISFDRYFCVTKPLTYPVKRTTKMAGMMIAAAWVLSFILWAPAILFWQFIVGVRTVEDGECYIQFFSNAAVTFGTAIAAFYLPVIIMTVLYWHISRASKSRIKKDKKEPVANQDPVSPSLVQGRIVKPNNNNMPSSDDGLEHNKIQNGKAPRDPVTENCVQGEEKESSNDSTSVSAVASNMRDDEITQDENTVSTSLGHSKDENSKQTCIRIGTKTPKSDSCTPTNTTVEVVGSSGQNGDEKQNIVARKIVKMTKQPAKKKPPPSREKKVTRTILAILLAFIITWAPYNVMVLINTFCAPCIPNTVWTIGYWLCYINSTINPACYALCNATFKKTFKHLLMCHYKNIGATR

[2] = target: T1, Muscarinic acetylcholine receptor M2; assay: Displacement of [3H]NMS from wild-type human mAChR2 expressed in Flp-In-CHO cell membranes in presence of mAChR2 agonist acetylcholine after 90 mins by scintillation counting analysis
[3] = target: D(2) dopamine receptor (Homo sapiens) (UniProt P14416)
Description: Agonist activity at D2 long receptor (unknown origin) expressed in Flp-In-CHO cells co-expressing Rluc8-tagged GalphaoB assessed as change in transduction coefficient by measuring GalphaoB activation in presence of coelenterazine by BRET assay

[4] = target: D(2) dopamine receptor (Homo sapiens) (UniProt P14416); remark: listed apart in the source
Description: Agonist activity at D2 long receptor (unknown origin) expressed in Flp-In-CHO cells assessed as change in transduction coefficient by measuring cellular impedance measured immediately at 15 secs interval for 90 mins by xCELLigence assay

[5] = target: D(2) dopamine receptor (Homo sapiens) (UniProt P14416); remark: listed apart in the source
Description: Agonist activity at D2 long receptor (unknown origin) expressed in Flp-In-CHO cells assessed as change in transduction coefficient by measuring induction of ERK1/2 phosphorylation after 5 mins by Alphascreen assay

[6] = target: D(2) dopamine receptor (Homo sapiens) (UniProt P14416); remark: listed apart in the source
Description: Displacement of [3H]spiperone from D2 long receptor (unknown origin) expressed in Flp-In-CHO cell membranes assessed as transduction coefficient by measuring dissociation half life after 5 mins by liquid scintillation counter method

[7] = target: D(2) dopamine receptor (Homo sapiens) (UniProt P14416); remark: listed apart in the source
Description: Agonist activity at D2 long receptor (unknown origin) expressed in Flp-In-CHO cells assessed as change in transduction coefficient by measuring inhibition of forskolin-induced cAMP production measured after 5 mins in presence of coelenterazine by BRET assay

[8] = target: T2, Muscarinic acetylcholine receptor M1 (Homo sapiens) (UniProt P11229); assay: Displacement of [3H]NMS from recombinant human mAChR1 expressed in Flp-In-CHO cells after 1 hr by microbeta scintillation counting analysis; format: cell-based
T2 sequence (whole entry): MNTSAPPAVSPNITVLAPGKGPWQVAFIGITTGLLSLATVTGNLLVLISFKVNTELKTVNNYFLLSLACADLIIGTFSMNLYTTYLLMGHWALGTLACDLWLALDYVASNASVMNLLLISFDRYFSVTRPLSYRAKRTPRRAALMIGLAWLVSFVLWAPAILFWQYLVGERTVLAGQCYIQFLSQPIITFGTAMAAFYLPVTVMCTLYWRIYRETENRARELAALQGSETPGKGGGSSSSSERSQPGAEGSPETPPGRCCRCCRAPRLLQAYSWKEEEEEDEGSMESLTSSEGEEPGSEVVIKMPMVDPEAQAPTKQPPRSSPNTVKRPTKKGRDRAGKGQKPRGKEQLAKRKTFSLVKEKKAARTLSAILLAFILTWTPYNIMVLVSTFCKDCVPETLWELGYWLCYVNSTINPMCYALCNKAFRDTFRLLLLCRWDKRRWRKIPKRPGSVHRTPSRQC

[9] = target: Metabotropic glutamate receptor 5 (Homo sapiens) (UniProt P41594); assay: Negative allosteric modulation of mGlu5 receptor (unknown origin) expressed in HEK293A cells assessed as inhibition of glutamate induced-calcium mobilization by Fluo-4 AM dye based fluorescence assay; format: functional, cell-based
[10] = target: T3, Glycine receptor subunit alpha-1 (Homo sapiens, UniProt P23415); assay: Positive allosteric modulatory activity at recombinant human glycine alpha1 receptor expressed in HEK293 cells assessed as potentiation of glycine-induced response at -50 mV holding potential in presence of fructose by whole cell patch clamp method; format: cell-based
T3 sequence (P23415 whole entry): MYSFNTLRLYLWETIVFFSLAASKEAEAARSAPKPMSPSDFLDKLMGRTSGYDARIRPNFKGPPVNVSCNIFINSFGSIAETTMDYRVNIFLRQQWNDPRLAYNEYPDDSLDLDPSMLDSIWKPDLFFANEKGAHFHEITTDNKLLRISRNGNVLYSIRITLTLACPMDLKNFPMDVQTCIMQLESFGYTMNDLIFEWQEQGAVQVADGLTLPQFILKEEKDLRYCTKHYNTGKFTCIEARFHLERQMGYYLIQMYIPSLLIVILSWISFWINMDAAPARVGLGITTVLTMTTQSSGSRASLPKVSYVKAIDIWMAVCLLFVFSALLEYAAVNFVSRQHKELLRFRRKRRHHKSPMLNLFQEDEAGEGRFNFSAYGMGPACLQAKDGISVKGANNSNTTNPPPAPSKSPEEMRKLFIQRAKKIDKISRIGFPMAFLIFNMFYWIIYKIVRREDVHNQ

[11] = target: D(2) dopamine receptor (Homo sapiens) (UniProt P14416); remark: listed apart in the source
Description: Agonist activity at Rluc8-tagged D2 long receptor (unknown origin) expressed in Flp-In-CHO cells co-expressing YFP-tagged beta-arrestin2 assessed as change in transduction coefficient by measuring beta-arrestin2 recruitment measured after 5 mins by BRET assay

[12] = target: D(2) dopamine receptor (Homo sapiens) (UniProt P14416); remark: listed apart in the source
Description: Agonist activity at D2 long receptor (unknown origin) expressed in Flp-In-CHO cells co-expressing Rluc8-tagged Galphai1 assessed as change in transduction coefficient by measuring Galphai1 activation after 5 mins in presence of coelenterazine by BRET assay

[13] = target: T4, Tyrosine-protein kinase BTK (Homo sapiens, UniProt Q06187); assay: Binding affinity to recombinant full length BTK (unknown origin) assessed as residence time by fluorescent tracer based TR-FRET assay
[14] = target: T4, Tyrosine-protein kinase BTK; assay: Ratio of Kinact to ki for recombinant full length BTK (unknown origin)
[15] = target: T2, Muscarinic acetylcholine receptor M1 (Homo sapiens); assay: Displacement of [3H]NMS from recombinant human mAChR1 expressed in CHO cells; format: cell-based
[16] = target: T5, C-X-C chemokine receptor type 3 (Homo sapiens) (UniProt P49682); assay: Displacement of [3H]RAMX3 from CXCR3 (unknown origin) expressed in HEK cells after 1 hrs by microbeta scintillation counter; format: cell-based
T5 sequence (whole entry): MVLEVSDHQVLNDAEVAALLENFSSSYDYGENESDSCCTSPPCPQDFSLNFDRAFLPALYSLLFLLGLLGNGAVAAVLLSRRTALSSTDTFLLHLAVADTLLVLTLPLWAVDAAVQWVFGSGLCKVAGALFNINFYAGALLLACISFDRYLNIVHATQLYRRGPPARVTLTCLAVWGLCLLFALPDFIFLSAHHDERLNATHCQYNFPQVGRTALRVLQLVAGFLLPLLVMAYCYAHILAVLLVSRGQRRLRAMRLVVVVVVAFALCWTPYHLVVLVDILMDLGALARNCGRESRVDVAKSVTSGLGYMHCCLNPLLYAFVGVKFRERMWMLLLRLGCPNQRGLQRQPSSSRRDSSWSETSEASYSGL

D(2) dopamine receptor (Homo sapiens), sequence (P14416 whole entry): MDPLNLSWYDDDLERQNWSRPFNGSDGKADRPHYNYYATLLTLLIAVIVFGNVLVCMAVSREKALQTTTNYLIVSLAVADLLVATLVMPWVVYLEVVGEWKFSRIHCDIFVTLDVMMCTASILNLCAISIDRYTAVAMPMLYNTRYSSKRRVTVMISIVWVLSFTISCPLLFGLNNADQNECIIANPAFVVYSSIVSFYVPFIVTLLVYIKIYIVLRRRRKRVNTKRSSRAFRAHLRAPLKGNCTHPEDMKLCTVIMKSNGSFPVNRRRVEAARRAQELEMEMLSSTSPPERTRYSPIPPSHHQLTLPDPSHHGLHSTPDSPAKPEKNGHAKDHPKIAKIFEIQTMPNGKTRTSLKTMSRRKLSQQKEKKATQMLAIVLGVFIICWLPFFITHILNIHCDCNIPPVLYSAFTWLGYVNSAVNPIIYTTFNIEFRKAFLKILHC
T4 sequence (Q06187 whole entry): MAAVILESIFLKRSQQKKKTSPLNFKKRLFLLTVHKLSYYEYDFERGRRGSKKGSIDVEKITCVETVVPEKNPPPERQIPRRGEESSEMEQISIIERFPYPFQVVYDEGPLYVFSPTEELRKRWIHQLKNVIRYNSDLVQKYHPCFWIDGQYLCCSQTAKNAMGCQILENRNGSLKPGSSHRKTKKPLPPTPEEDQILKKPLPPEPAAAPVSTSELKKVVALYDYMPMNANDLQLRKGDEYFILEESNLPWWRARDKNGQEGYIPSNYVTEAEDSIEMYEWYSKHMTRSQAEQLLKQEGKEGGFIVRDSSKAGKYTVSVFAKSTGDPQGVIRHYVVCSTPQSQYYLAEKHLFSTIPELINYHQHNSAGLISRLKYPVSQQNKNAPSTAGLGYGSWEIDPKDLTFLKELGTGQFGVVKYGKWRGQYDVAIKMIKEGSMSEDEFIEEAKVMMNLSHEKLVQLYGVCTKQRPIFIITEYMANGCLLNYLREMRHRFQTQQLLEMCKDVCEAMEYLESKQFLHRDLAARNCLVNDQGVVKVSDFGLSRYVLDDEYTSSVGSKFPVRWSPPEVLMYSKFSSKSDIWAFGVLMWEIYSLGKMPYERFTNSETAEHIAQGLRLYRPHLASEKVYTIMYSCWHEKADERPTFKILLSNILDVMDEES
Metabotropic glutamate receptor 5 (Homo sapiens), sequence (P41594 21-1212 limits assumed): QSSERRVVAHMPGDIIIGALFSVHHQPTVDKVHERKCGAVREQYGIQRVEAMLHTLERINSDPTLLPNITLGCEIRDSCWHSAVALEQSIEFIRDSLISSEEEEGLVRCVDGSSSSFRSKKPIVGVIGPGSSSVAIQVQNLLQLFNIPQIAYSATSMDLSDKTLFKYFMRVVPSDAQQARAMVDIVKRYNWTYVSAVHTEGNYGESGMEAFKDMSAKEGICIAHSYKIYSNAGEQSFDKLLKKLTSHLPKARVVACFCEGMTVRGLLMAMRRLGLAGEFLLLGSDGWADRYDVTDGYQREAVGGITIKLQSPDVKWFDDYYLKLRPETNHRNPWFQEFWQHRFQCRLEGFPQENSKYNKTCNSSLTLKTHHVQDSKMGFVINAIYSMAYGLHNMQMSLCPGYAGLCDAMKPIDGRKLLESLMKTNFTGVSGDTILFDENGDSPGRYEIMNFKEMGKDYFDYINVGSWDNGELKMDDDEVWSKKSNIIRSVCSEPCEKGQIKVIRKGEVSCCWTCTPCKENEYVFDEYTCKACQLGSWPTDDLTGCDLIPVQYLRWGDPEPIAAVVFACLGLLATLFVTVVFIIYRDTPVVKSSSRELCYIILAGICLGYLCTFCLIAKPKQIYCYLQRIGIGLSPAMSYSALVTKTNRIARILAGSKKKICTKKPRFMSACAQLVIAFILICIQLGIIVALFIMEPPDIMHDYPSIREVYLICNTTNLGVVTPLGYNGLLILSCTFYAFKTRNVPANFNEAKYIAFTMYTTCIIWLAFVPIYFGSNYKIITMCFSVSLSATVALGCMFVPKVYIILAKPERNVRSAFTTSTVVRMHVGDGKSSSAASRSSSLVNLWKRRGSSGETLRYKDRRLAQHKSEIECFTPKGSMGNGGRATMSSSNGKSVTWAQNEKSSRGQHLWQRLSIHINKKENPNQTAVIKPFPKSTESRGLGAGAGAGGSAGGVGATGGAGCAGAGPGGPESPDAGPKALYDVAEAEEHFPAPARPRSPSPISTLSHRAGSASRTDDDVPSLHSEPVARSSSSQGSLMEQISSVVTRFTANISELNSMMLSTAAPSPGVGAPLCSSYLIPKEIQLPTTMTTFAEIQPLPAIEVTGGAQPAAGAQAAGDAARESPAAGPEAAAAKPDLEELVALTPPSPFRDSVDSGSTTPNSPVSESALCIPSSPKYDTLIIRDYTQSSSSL

SMILES: COc1nc2sc(C(=O)NC3CC3)c(N)c2c(C)c1Cl
Ki [1]: 0.158 µM
Ki [2]: 3.16 µM

SMILES: CN(C)C(=O)N[C@H]1CC[C@H](CCN2CCN(c3cccc(Cl)c3Cl)CC2)CC1
deltalog(Tau/KA) [3]: 0.7
deltalog(Tau/KA) [4]: 0.3
deltalog(Tau/KA) [5]: -1.1
T1/2 [6]: 1.4 min
deltalog(Tau/KA) [7]: 0.2

SMILES: O=C(CO)[C@@H](O)[C@H](O)[C@H](O)CO [FRUCTOSE]
EC50 [10]: 12.6 µM

SMILES: Cc1c(Cc2ccc(-c3cnn(C)c3)nc2)cc2c(=O)n([C@H]3CCCC[C@@H]3O)cnc2c1C
pKb [8]: 5.1

SMILES: O=c1[nH]c2cccc(N3CCN(Cc4cccc(-c5ccccc5)c4)CC3)c2o1
deltalog(Tau/KA) [3]: 0.3
deltalog(Tau/KA) [4]: -0.3
deltalog(Tau/KA) [5]: -1.2
deltalog(Tau/KA) [11]: -0.6
deltalog(Tau/KA) [12]: 1.4
T1/2 [6]: 86 min
deltalog(Tau/KA) [7]: -0.2

SMILES: CC(C)(/C=C(\C#N)C(=O)N1CCC[C@@H]1Cn1nc(-c2ccc(Oc3ccccc3)cc2F)c2c(N)ncnc21)NC1COC1
TIME [13]: 167 h
Ratio [14]: 0.4

Results, then the compound that gave them:

pKb [8]: 5.8
SMILES: Cn1cc(-c2ccc(Cc3cc4c(=O)n([C@H]5CCCC[C@@H]5O)cnc4c4ccccc34)cn2)cn1

pKb [9]: 6.1
SMILES: C#CCOc1ccc(C(=O)c2ccc(OCCOc3cccc(C#Cc4csc(C)n4)c3)cc2)cc1

pKb [8]: 4.3
SMILES: Cn1cc(-c2ccc(Cc3ccc4ncn([C@H]5CCCC[C@@H]5O)c(=O)c4c3)cn2)cn1

pKb [8]: 4.8
SMILES: COc1ccc(Cn2cc(C(=O)O)c(=O)c3ccccc32)cc1

pKb [15]: 5.2
SMILES: O=C(O)c1cn(Cc2ccc(N=C=S)cc2)c2ccccc2c1=O

pKb [8]: 5.2
SMILES: Cc1cc2ncn([C@H]3CCCC[C@@H]3O)c(=O)c2cc1Cc1ccc(-c2cnn(C)c2)nc1

pKb [16]: 6.1
SMILES: CCOc1cc(CC(=O)N(Cc2ccc(OC)c(B(O)O)c2)C(C)c2nc3ncccc3c(=O)n2-c2ccc(C)cc2)ccc1F (stereo not given)
